The results in this text go back to US4814348A, “Therapeutic compositions containing derivatives of acrylic acid having an oxygen-containing heterocycle, therapeutic treatment therewith and new compounds” (Roussel Uclaf, priority 1983, dated 1989).

Series [1] in a line: Acute oral toxicity (median lethal dose) in mice. The following applies: mouse, in vivo, oral administration. Here is the method:
The median lethal dose (LD50) was evaluated upon oral administration of the products to mice.

Series [2] deals with total acidity of the gastric secretions. Nature of the series: Gastric antisecretory activity in pylorus-ligated rats (Shay technique). It is filed as in vivo. The following applies: dose of 10 mg/kg, intraduodenal, male rats, 3 hours. The procedure:
B. Determination of the gastric antisecretory activity
The technique used is described by H. Shay et al in Gastro. Enterology, 5 43 (1945).
Male rats are used of a weight of about 200 g, which had been deprived of food for 48 hours, but with 8% glucose solution ad libitum. The pylorus of the rats, which had been slightly anesthetized with ether, is ligated and then, upon the end of the operation, the product to be tested is administered in different doses or, in the case of the control animals, an 0.5% solution of carboxymethyl cellulose is administered intraduodenally, whereupon the abdominal incision is sutured.
Three hours later, the animals are sacrificed and their stomachs removed after ligation of the esophagus.
The gastric juice is removed and centrifuged. The volume is then noted and the total acidity is determined on 100 μl of gastric juice by titration to a pH of 7 by means of 1/100N caustic soda.
The percentages of variation of total acidity of the gastric secretions are calculated, as compared with the results obtained with the control animals.

SMILES strings stand for the structures.

Regarding `Cc1ccc(C(=O)/C=C/C(=O)O)o1` [Example 6, Trans 4-(5-methyl-2-furyl)-4-oxo-2-butenoic Acid], in series [1], the LD50 (in general, the dose expected to kill half of the subjects tested) came to 350 mg/kg. The “percentage of variation of total acidity of the gastric secretions as compared with control animals” value (from here on “percentage”) in series [2] is recorded as 75%.

`Cc1cc(C(=O)/C=C/C(=O)O)c(C)o1` [Example 7, Trans 4-(2,5-dimethyl-3-furyl)-4-oxo-2-butenoic Acid]: the LD50 in series [1] came to 350 mg/kg. Besides, the “percentage” value in series [2] worked out at 45%.

For the compound `Cc1cc(O)c(C(=O)C=CC(=O)O)c(=O)o1` [Example 2, 4-(2-oxo-4-hydroxy-6-methyl-2H-pyran-3-yl)-4-oxo-buten-2-oic acid], the LD50 in series [1] was 350 mg/kg. Further, the “percentage” value in series [2] is given as 70%.

In series [1], `Cc1noc(C)c1C(=O)/C=C/C(=O)O` [Example 5, Trans-4(3,5-dimethyl-isoxazol-4-yl)-4-oxo-buten-2-oic acid] yielded an LD50 of 350 mg/kg. In addition, the “percentage” value in series [2] is given as 87%.

In the case of `O=C(O)C=CC(=O)c1ccco1` [Example 3, 4-(2-furyl)-4-oxo-buten-2-oic acid], the LD50 in series [1] was 750 mg/kg. Besides, the “percentage” value in series [2] turned out to be 94%.

In series [1], `O=C(O)C=CC(=O)c1cc2ccccc2o1` [Example 1, 4-(benzofuran-2-yl)-4-oxo-buten-2-oic acid] gave an LD50 of 350 mg/kg. In addition, in series [2], the “percentage” value came out at 53%.

In the case of `Cc1nc(C(=O)/C=C/C(=O)O)c(C)o1` [Example 4, Trans 4-(2,5-dimethyl-oxazol-4-yl)-4-oxo-buten-2-oic acid], in series [1], the LD50 was found to be 350 mg/kg. For the same compound, the “percentage” value in series [2] turned out to be 77%.
